Test system: blood pressure in anesthetized rats
Test: Effect on blood pressure in anesthetized rats
Assay type: in vivo, rat
Settings: 100 mg/kg intraduodenally; urethane-anesthetized female SD rats; % change at time of maximal action, up to 3 hours
Protocol: Effect on blood pressure in anesthetized rats
Female 10-13-week-old SD rats (body weights 180-300 g) fasted from the previous day were used in groups of 2-4. The animal was placed in supine position under urethane anesthesia and the femoral artery was cannulated for blood pressure measurement. The blood pressure was recorded on a recorder through the cannula and a pressure transducer. When the blood pressure had stabilized, the test drug was administered intraduodenally and the effect on blood pressure was monitored up to 3 hours after administration.
Each value is expressed as the average of % changes at the time of maximal action.

Structure (SMILES)	Hypotensive effect (%)
Cc1c(-c2ccccc2)[nH]c(N)c1C#N [Compound 2, 2-Amino-3-cyano-4-methyl-5-phenylpyrrole]	25.9
Cc1c(-c2cccc(Cl)c2)[nH]c(N)c1C#N [Compound 3, 2-Amino-5-(3-chlorophenyl)-3-cyano-4-methylpyrrole]	14.1
Cc1c(-c2ccco2)[nH]c(N)c1C#N [Compound 4, 2-Amino-3-cyano-5-(2-furyl)-4-methylpyrrole]	25.6

Test system: isolated rat aorta specimen
Test: Effect on KCl-induced contraction of the isolated rat aorta specimen
Assay type: cell-based
Settings: 1 μM; 20 mM KCl; papaverine (100 μM) = 100% relaxation
Protocol: Effect on KCl-induced contraction of the isolated rat aorta specimen
In the present experiment, potassium channel activating activity was evaluated by comparing the pIC50 values representing the relaxing effects of the test drug on the 20 mM KCl-induced contraction and 100 mM KCl-contraction. According to Br. J. Pharmacol., 88, 103-111 (1986) referred to above, potassium channel activators produce greater relaxing effects on 20 mM KCl-induced contraction than on 100 mM KCl-induced contraction.
Male 7-13-week-old SD rats (body weights 240-480 g) were used in groups of 4-6. After the animal was bled to death under ether anesthesia, the throacic aorta was isolated and dissected into a spiral specimen about 2 mm wide×about 20 mm long. Each specimen was suspended in a 10 ml Magnus bath containing Krebs-Henseleit solution (KH solution) aerated with 95% O2+5% CO2 at 37° C. A tension load of 1 g was applied and with the KH solution exchanged every 20 minutes, the specimen was equilibrated for about 90 minutes. Then, the experiment was commenced. The change in tension of the specimen was recorded on a recticorder through an isometric tension transducer. The specimen was caused to contract by replacing the KH solution in the Magnus bath with 20 mM or 100 mM KCl-containing KH solution (NaCl in KH solution was replaced with an equimolar amount of KCl) and when the contractile response had reached plateau, the test drug was cumulatively applied to evaluate the relaxing effect.
Each result was expressed in the average of the relaxation ratio obtained in the presence of the test drug, with the maximum relaxation found with papaverine (100 μM) being taken as the 100% relaxation response of the specimen.

Structure (SMILES)	Relaxation effect (%) 20 mM KCl-induced contraction [%]
Cc1c(-c2cccc(Cl)c2)[nH]c(N)c1C#N [Compound 3, 2-Amino-5-(3-chlorophenyl)-3-cyano-4-methylpyrrole]	45

Same assay, conditions: 1 μM; 100 mM KCl; papaverine (100 μM) = 100% relaxation

Structure (SMILES)	Relaxation effect (%) 100 mM KCl-induced contraction [%]
Cc1c(-c2cccc(Cl)c2)[nH]c(N)c1C#N [Compound 3, 2-Amino-5-(3-chlorophenyl)-3-cyano-4-methylpyrrole]	6

Same assay, conditions: 10 μM; 20 mM KCl; papaverine (100 μM) = 100% relaxation

Structure (SMILES)	Relaxation effect (%) 20 mM KCl-induced contraction [%]
Cc1c(-c2ccccc2F)[nH]c(N)c1C#N [Compound 1, 2-Amino-3-cyano-5-(2-fluorophenyl)-4-methylpyrrole]	82
N#Cc1cc(-c2ccc3c(c2)OCO3)[nH]c1N [Compound 5, 2-Amino-3-cyano-5-(3,4-methylenedioxyphenyl)pyrrole]	73
N#Cc1cc(-c2ccc(F)cc2F)[nH]c1N [Compound 6, 2-Amino-3-cyano-5-(2,4-difluorophenyl)pyrrole]	92
Cc1c(-c2ccccc2)[nH]c(N)c1C#N [Compound 2, 2-Amino-3-cyano-4-methyl-5-phenylpyrrole]	78
Cc1c(-c2ccco2)[nH]c(N)c1C#N [Compound 4, 2-Amino-3-cyano-5-(2-furyl)-4-methylpyrrole]	64

Same assay, conditions: 10 μM; 100 mM KCl; papaverine (100 μM) = 100% relaxation

Structure (SMILES)	Relaxation effect (%) 100 mM KCl-induced contraction [%]
Cc1c(-c2ccccc2F)[nH]c(N)c1C#N [Compound 1, 2-Amino-3-cyano-5-(2-fluorophenyl)-4-methylpyrrole]	28
N#Cc1cc(-c2ccc3c(c2)OCO3)[nH]c1N [Compound 5, 2-Amino-3-cyano-5-(3,4-methylenedioxyphenyl)pyrrole]	18
N#Cc1cc(-c2ccc(F)cc2F)[nH]c1N [Compound 6, 2-Amino-3-cyano-5-(2,4-difluorophenyl)pyrrole]	24
Cc1c(-c2ccccc2)[nH]c(N)c1C#N [Compound 2, 2-Amino-3-cyano-4-methyl-5-phenylpyrrole]	17
Cc1c(-c2ccco2)[nH]c(N)c1C#N [Compound 4, 2-Amino-3-cyano-5-(2-furyl)-4-methylpyrrole]	12

Test system: isolated guinea-pig trachea specimen
Test: Effect on the KCl-induced contraction of the isolated guinea-pig trachea specimen
Assay type: cell-based
Settings: 3 μM; 20 mM KCl
Protocol: Effect on the KCl-induced contraction of the isolated guinea-pig trachea specimen
As in Experimental Example 1, potassium channel activating activity was evaluated by comparing the relaxing effects of the test drug on 20 mM KCl-induced contraction and 100 mM KCl-induced contraction.
Male 5-13-week-old Hartley guinea pigs (body weights 400-730 g) were used in groups of 2-4. After the animal was bled to death under ether anesthesia, the trachea was isolated and 4 tracheal strips were connected to prepare a specimen in accordance with the method of Takagi et al. (Chem. Pharm. Bull., 6, 716-720 (1958)). The experiment was performed in the same manner as described in Experimental Example 1.

Structure (SMILES)	Relaxation effect (%) 20 mM KCl-induced contraction [%]
CCOc1cccc(-c2cc(C#N)c(N3CCCC3)[nH]2)c1 [Compound 10, 3-Cyano-5-(3-ethoxyphenyl)-2-pyrrolidinopyrrole]	37
Cc1c(-c2cccc([N+](=O)[O-])c2)[nH]c(N)c1C#N [Compound 8, 2-Amino-3-cyano-4-methyl-5-(3-nitrophenyl)pyrrole]	58
Cc1[nH]c(-c2cccc(Cl)c2)cc1C#N [Compound 7, 5-(3-Chlorophenyl)-3-cyano-2-methylpyrrole]	64

Same assay, conditions: 3 μM; 100 mM KCl

Structure (SMILES)	Relaxation effect (%) 100 mM KCl-induced contraction [%]
CCOc1cccc(-c2cc(C#N)c(N3CCCC3)[nH]2)c1 [Compound 10, 3-Cyano-5-(3-ethoxyphenyl)-2-pyrrolidinopyrrole]	−15
Cc1c(-c2cccc([N+](=O)[O-])c2)[nH]c(N)c1C#N [Compound 8, 2-Amino-3-cyano-4-methyl-5-(3-nitrophenyl)pyrrole]	−2
Cc1[nH]c(-c2cccc(Cl)c2)cc1C#N [Compound 7, 5-(3-Chlorophenyl)-3-cyano-2-methylpyrrole]	31

Same assay, conditions: 10 μM; 20 mM KCl

Structure (SMILES)	Relaxation effect (%) 20 mM KCl-induced contraction [%]
N#Cc1cc(-c2ccc3c(c2)OCO3)[nH]c1N [Compound 5, 2-Amino-3-cyano-5-(3,4-methylenedioxyphenyl)pyrrole]	58
Cc1[nH]c(-c2ccccc2)c(C)c1C#N [Compound 9, 3-Cyano-2,4-dimethyl-5-phenylpyrrole]	79
N#Cc1cc(-c2ccc3c(c2)OCO3)[nH]c1N1CCCC1 [Compound 11, 3-Cyano-5-(3,4-methylenedioxyphenyl)-2-pyrrolidinopyrrole]	37

Same assay, conditions: 10 μM; 100 mM KCl

Structure (SMILES)	Relaxation effect (%) 100 mM KCl-induced contraction [%]
N#Cc1cc(-c2ccc3c(c2)OCO3)[nH]c1N [Compound 5, 2-Amino-3-cyano-5-(3,4-methylenedioxyphenyl)pyrrole]	−7
Cc1[nH]c(-c2ccccc2)c(C)c1C#N [Compound 9, 3-Cyano-2,4-dimethyl-5-phenylpyrrole]	39
N#Cc1cc(-c2ccc3c(c2)OCO3)[nH]c1N1CCCC1 [Compound 11, 3-Cyano-5-(3,4-methylenedioxyphenyl)-2-pyrrolidinopyrrole]	4

From US6353016B1, “Potassium channel activators” (Nippon Shinyaku Co., Ltd., priority 1998, dated 2002)
